Source: patent US20260226068A1, “IMIDAZOTRIAZINE IL-17A MODULATORS AND USES THEREOF” (DICE ALPHA, INC., priority 2023, published 2026)
pIC50: −log10 of the molar value.

Tests used:
IL-17A/F = biological target: T1, IL-17A/F (Homo sapiens, UniProt Q16552+Q96PD4); test: IL-17A/F HEK-Blue cell assay (SEAP reporter); format: cell-based; conditions: HEK-Blue IL-17A reporter cells, IL17A/F 5 ng/mL, 20 hours, SEAP read at A630; read-out: HEK-Blue IL17AF (IC50 for IL-17A/F inhibition)
T1 construct: purchased R&D Systems
T1 sequence (Q16552 24-155): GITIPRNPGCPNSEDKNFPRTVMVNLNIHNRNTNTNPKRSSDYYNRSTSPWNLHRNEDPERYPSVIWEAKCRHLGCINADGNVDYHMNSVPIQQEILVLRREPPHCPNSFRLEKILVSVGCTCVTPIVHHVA
T1 sequence (Q96PD4 31-163): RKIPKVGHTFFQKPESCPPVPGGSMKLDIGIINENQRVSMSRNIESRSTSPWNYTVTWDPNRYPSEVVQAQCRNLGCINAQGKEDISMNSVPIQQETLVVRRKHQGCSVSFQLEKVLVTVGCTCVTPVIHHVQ

IL-17A/A = biological target: T2, IL-17A/A (Homo sapiens, UniProt Q16552); test: IL-17A/A HEK-Blue cell assay (SEAP reporter); format: cell-based; conditions: HEK-Blue IL-17A reporter cells, IL17A/A 5 ng/mL, 20 hours, SEAP read at A630; read-out: HEK-Blue IL17AA (IC50 for IL-17A/A inhibition)
T2 construct: purchased Genscript Z03228
T2 sequence (Q16552 24-155): T1 sequence (Q16552 24-155)

Compound	pIC50 (IL-17A/F)	pIC50 (IL-17A/A)
CC(C)n1nccc1C(=O)N[C@H](c1cn2nc(C[C@H]3C[C@@H](C(F)(F)F)CNC3=O)c(C3CCOC3)nc2n1)C1CCC(F)(F)CC1 (single isomer, unassigned) [Compound 133]	6.00 to 7.00	> 7.00
O=C(N[C@H](c1cn2nc(C[C@H]3C[C@@H](C(F)(F)F)CNC3=O)c(C3CCOC3)nc2n1)C1CCC(F)(F)CC1)c1nonc1C1CC1 (single isomer, unassigned) [Compound 134]	< 6.00	> 7.00
O=C(N[C@H](c1cn2nc(C[C@H]3C[C@@H](C(F)(F)F)CNC3=O)c(C3CCOC3)nc2n1)C1CCC(F)(F)CC1)c1nonc1C1CC1 (single isomer, unassigned) [Compound 135]	< 6.00	> 7.00
CCn1nccc1C(=O)N[C@H](c1cn2nc(C[C@H]3C[C@@H](C(F)(F)F)CNC3=O)c(C3CCOC3)nc2n1)[C@H]1CC[C@H](C)CC1 (single isomer, unassigned) [Compound 138]	> 7.00	> 7.00
CCn1nccc1C(=O)N[C@H](c1cn2nc(C[C@H]3C[C@@H](C(F)(F)F)CNC3=O)c(C3CCOC3)nc2n1)[C@H]1CC[C@H](C)CC1 (single isomer, unassigned) [Compound 139]	> 7.00	> 7.00
O=C(N[C@H](c1cn2nc(C[C@H]3C[C@@H](C(F)(F)F)CNC3=O)c(C3CCOCC3)nc2n1)C1CCC(F)(F)CC1)c1conc1C1CC1(F)F (single isomer, unassigned) [Compound 144]	6.00 to 7.00	> 7.00
O=C(N[C@H](c1cn2nc(C[C@H]3C[C@@H](C(F)(F)F)CNC3=O)c(C3CCOCC3)nc2n1)C1CCC(F)(F)CC1)c1conc1C1CC1(F)F (single isomer, unassigned) [Compound 145]	6.00 to 7.00	> 7.00
CCn1nccc1C(=O)N[C@@H](COC(C)(C)C(F)(F)F)c1cn2nc(C[C@H]3C[C@@H](C(F)(F)F)CNC3=O)c(C3CCOCC3)nc2n1 (single isomer, unassigned) [Compound 159]	< 6.00	> 7.00
CCn1nccc1C(=O)N[C@@H](CCC(C)(C)C(F)(F)F)c1cn2nc(C[C@H]3C[C@@H](C(F)(F)F)CNC3=O)c(C3CCOCC3)nc2n1 (single isomer, unassigned) [Compound 160]	6.00 to 7.00	> 7.00
CCn1nccc1C(=O)N[C@H](c1cn2nc(C[C@H]3C[C@@H](C(F)(F)F)CNC3=O)c(C3CCOC(C)(C)C3)nc2n1)C1CCC(F)(F)CC1 (single isomer, unassigned) [Compound 163]	6.00 to 7.00	> 7.00
CCn1nccc1C(=O)N[C@H](c1cn2nc(C[C@H]3C[C@@H](C(F)(F)F)CNC3=O)c(C3(C)CCCOC3)nc2n1)C1CCC(F)(F)CC1 (single isomer, unassigned) [Compound 165]	6.00 to 7.00	> 7.00
CCn1nccc1C(=O)N[C@H](c1cn2nc(C[C@H]3C[C@@H](C(F)(F)F)CNC3=O)c(C3(C)CCOC3)nc2n1)C1CCC(F)(F)CC1 (single isomer, unassigned) [Compound 166]	6.00 to 7.00	> 7.00
CCn1nccc1C(=O)N[C@H](c1cn2nc(C[C@H]3C[C@@H](C(F)(F)F)CNC3=O)c(C(C)C(F)(F)F)nc2n1)C1CCC(F)(F)CC1 (single isomer, unassigned) [Compound 174]	6.00 to 7.00	> 7.00
CCn1nccc1C(=O)N[C@H](c1cn2nc(C[C@H]3C[C@@H](C(F)(F)F)CNC3=O)c(C(C)C(F)(F)F)nc2n1)C1CCC(F)(F)CC1 (single isomer, unassigned) [Compound 175]	6.00 to 7.00	> 7.00
CCn1nccc1C(=O)N[C@H](c1cn2nc(C[C@H]3C[C@@H](C(F)(F)F)CNC3=O)c(C3CCOC(C)(C)C3)nc2n1)C1CCC(F)(F)CC1 (single isomer, unassigned) [Compound 176]	> 7.00	> 7.00
CCn1nccc1C(=O)N[C@H](c1cn2nc(C[C@H]3C[C@@H](C(F)(F)F)CNC3=O)c(C3(C)CCCOC3)nc2n1)C1CCC(F)(F)CC1 (single isomer, unassigned) [Compound 177]	6.00 to 7.00	> 7.00
CCn1nccc1C(=O)N[C@H](c1cn2nc(C[C@H]3C[C@@H](C(F)(F)F)CNC3=O)c(C3(C)CCOC3)nc2n1)C1CCC(F)(F)CC1 (single isomer, unassigned) [Compound 178]	< 6.00	> 7.00
CCn1nccc1C(=O)N[C@H](c1cn2nc(C[C@H]3C[C@@H](C(F)(F)F)CNC3=O)c(C3CCOC3)nc2n1)[C@H]1CCCC(F)(F)C1 (single isomer, unassigned) [Compound 203]	> 7.00	> 7.00

Compound	pIC50 (IL-17A/F)	pIC50 (IL-17A/A)
CCn1nccc1C(=O)N[C@H](c1cn2nc(CC3C[C@@H](C(F)(F)F)CNC3=O)c(N3CCO[C@@H](C)C3)nc2n1)[C@@H]1CCCC(F)(F)C1 (single isomer, unassigned) [Compound 207]	6.00 to 7.00	> 7.00
CCn1nccc1C(=O)N[C@H](c1cn2nc(CC3C[C@@H](C(F)(F)F)CNC3=O)c(N3CCO[C@@H](C)C3)nc2n1)[C@@H]1CCCC(F)(F)C1 (single isomer, unassigned) [Compound 208]	6.00 to 7.00	> 7.00
O=C(N[C@H](c1cn2nc(C[C@H]3C[C@@H](C(F)(F)F)CNC3=O)c(C3CCCOC3)nc2n1)[C@@H]1CCCC(F)(F)C1)c1nonc1C1CC1 (single isomer, unassigned) [Compound 209]	< 6.00	> 7.00
O=C(N[C@H](c1cn2nc(C[C@H]3C[C@@H](C(F)(F)F)CNC3=O)c(C3CCCOC3)nc2n1)[C@@H]1CCCC(F)(F)C1)c1nonc1C1CC1 (single isomer, unassigned) [Compound 210]	6.00 to 7.00	> 7.00
CCn1nccc1C(=O)N[C@@H](CCC(C)(C)C(F)(F)F)c1cn2nc(C[C@H]3C[C@@H](C(F)(F)F)CNC3=O)c(C3CCOCC3)nc2n1 (single isomer, unassigned) [Compound 217]	< 6.00	> 7.00
CCn1nccc1C(=O)N[C@H](c1cn2nc(C[C@H]3C[C@@H](C(F)(F)F)CNC3=O)c(C[C@@H]3CCOC3)nc2n1)C1CCC(F)(F)CC1 (single isomer, unassigned) [Compound 224]	6.00 to 7.00	> 7.00
CCn1nccc1C(=O)N[C@H](c1cn2nc(C[C@H]3C[C@@H](C(F)(F)F)CNC3=O)c(C[C@H]3CCOC3)nc2n1)C1CCC(F)(F)CC1 (single isomer, unassigned) [Compound 225]	6.00 to 7.00	> 7.00
CCn1nccc1C(=O)N[C@H](c1cn2nc(C[C@H]3C[C@@H](C(F)(F)F)CNC3=O)c([C@@H](C)N3CCOCC3)nc2n1)C1CCC(F)(F)CC1 (single isomer, unassigned) [Compound 227]	6.00 to 7.00	> 7.00
CCn1nccc1C(=O)N[C@H](c1cn2nc(C[C@H]3C[C@@H](C(F)(F)F)CNC3=O)c(CN3CCOC[C@H]3C)nc2n1)C1CCC(F)(F)CC1 (single isomer, unassigned) [Compound 231]	6.00 to 7.00	> 7.00
CCn1nccc1C(=O)N[C@H](c1cn2nc(C[C@H]3C[C@@H](C(F)(F)F)CNC3=O)c(CN3CCOCC3C)nc2n1)C1CCC(F)(F)CC1 (single isomer, unassigned) [Compound 232]	6.00 to 7.00	> 7.00
CCn1nccc1C(=O)N[C@H](c1cn2nc(C[C@H]3C[C@@H](C(F)(F)F)CNC3=O)c([C@H](C)C3CCOCC3)nc2n1)C1CCC(F)(F)CC1 (single isomer, unassigned) [Compound 251]	< 6.00	> 7.00
CCn1nccc1C(=O)N[C@H](c1cn2nc(C[C@H]3C[C@@H](C(F)(F)F)CNC3=O)c([C@@H](C)C3CCOCC3)nc2n1)C1CCC(F)(F)CC1 (single isomer, unassigned) [Compound 252]	6.00 to 7.00	> 7.00
CCn1nccc1C(=O)N[C@H](c1cn2nc(C[C@H]3C[C@@H](C(F)(F)F)CNC3=O)c([C@@H]3CCC(C)(C)OC3)nc2n1)C1CCC(F)(F)CC1 (single isomer, unassigned) [Compound 256]	6.00 to 7.00	> 7.00
CCn1nccc1C(=O)N[C@H](c1cn2nc(C[C@H]3C[C@@H](C(F)(F)F)CNC3=O)c([C@H]3COCCC3(F)F)nc2n1)C1CCC(F)(F)CC1 (single isomer, unassigned) [Compound 257]	6.00 to 7.00	> 7.00
CCn1nccc1C(=O)N[C@H](c1cn2nc(C[C@H]3C[C@@H](C(F)(F)F)CNC3=O)c([C@H]3CCC(C)(C)OC3)nc2n1)C1CCC(F)(F)CC1 (single isomer, unassigned) [Compound 258]	6.00 to 7.00	> 7.00
CCn1nccc1C(=O)N[C@H](c1cn2nc(C[C@H]3C[C@@H](C(F)(F)F)CNC3=O)c(C3COCCC3(F)F)nc2n1)C1CCC(F)(F)CC1 (single isomer, unassigned) [Compound 259]	> 7.00	> 7.00
Cn1nccc1C(=O)N[C@H](c1cn2nc(C[C@H]3C[C@@H](C(F)(F)F)CNC3=O)c([C@H]3CCCOC3)nc2n1)C1CCC(F)(F)CC1 (single isomer, unassigned) [Compound 263]	< 6.00	> 7.00
Cn1nccc1C(=O)N[C@H](c1cn2nc(C[C@H]3C[C@@H](C(F)(F)F)CNC3=O)c([C@@H]3CCCOC3)nc2n1)C1CCC(F)(F)CC1 (single isomer, unassigned) [Compound 264]	6.00 to 7.00	> 7.00
